Each compound was assayed against FABP4 (Homo sapiens, UniProt P15090) (assay: TdF (Temperature Dependence Fluorescence) assay, thermal shift, FABP4).
Assay type: binding
In short: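 Binding measured as ΔTm versus protein alone; binding constants derived by nonlinear fitting with ΔHL set to −7 kcal/mol and ΔCpL to zero.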

Sequence of FABP4 (P15090 whole entry, species assumed): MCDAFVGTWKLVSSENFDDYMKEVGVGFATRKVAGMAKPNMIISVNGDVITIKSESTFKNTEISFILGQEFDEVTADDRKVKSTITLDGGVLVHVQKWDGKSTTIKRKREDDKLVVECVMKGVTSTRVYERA

Kd [nM]	FABP4 TdF Kd	SMILES
	B (0.5 ≦ B < 0.001 μM)	C#CC1(NC(=O)C2(OCc3cc(=O)n4nc(-c5ccccc5)nc4[nH]3)CCCCC2)CCCCC1 [48-41]
	B (0.5 ≦ B < 0.001 μM)	CN(CC1(c2ccccc2Cl)CC1)C(=O)C1(OCc2cc(=O)n3nc(-c4ccccc4)nc3[nH]2)CCCCC1 [48-42]
> 500		CC1(NC(=O)C2(OCc3cc(=O)n4nc(-c5ccccc5)nc4[nH]3)CCCCC2)COC1 [48-43]
	B (0.5 ≦ B < 0.001 μM)	O=C(O)C1(NC(=O)C2(OCc3cc(=O)n4nc(-c5ccccc5)nc4[nH]3)CCCCC2)CCCCC1 [48-44]
	B (0.5 ≦ B < 0.001 μM)	O=C(NCCc1cccc(Cl)c1)C1(OCc2cc(=O)n3nc(-c4ccccc4)nc3[nH]2)CCCCC1 [48-45]
	B (0.5 ≦ B < 0.001 μM)	CN(CC1(CO)CCC1)C(=O)C1(OCc2cc(=O)n3nc(-c4ccccc4)nc3[nH]2)CCCCC1 [48-46]
> 500		CNCC1(COC(=O)C2(OCc3cc(=O)n4nc(-c5ccccc5)nc4[nH]3)CCCCC2)CCC1 [48-47]
	B (0.5 ≦ B < 0.001 μM)	O=C(NC1(c2ccccc2F)CC1)C1(OCc2cc(=O)n3nc(-c4ccccc4)nc3[nH]2)CCCCC1 [48-48]
	B (0.5 ≦ B < 0.001 μM)	O=C(NCc1ccccc1C(F)(F)F)C1(OCc2cc(=O)n3nc(-c4ccccc4)nc3[nH]2)CCCCC1 [48-49]
	B (0.5 ≦ B < 0.001 μM)	Cc1ccccc1C1(NC(=O)C2(OCc3cc(=O)n4nc(-c5ccccc5)nc4[nH]3)CCCCC2)CC1 [48-50]
	B (0.5 ≦ B < 0.001 μM)	O=C(NC1(c2ccccc2)CC1)C1(OCc2cc(=O)n3nc(-c4ccccc4)nc3[nH]2)CCCCC1 [48-51]
	B (0.5 ≦ B < 0.001 μM)	O=C(NCc1ccccc1)C1(OCc2cc(=O)n3nc(-c4ccccc4)nc3[nH]2)CCCCC1 [48-52]
	B (0.5 ≦ B < 0.001 μM)	COC(=O)C1(NC(=O)C2(OCc3cc(=O)n4nc(-c5ccccc5)nc4[nH]3)CCCCC2)CCCCC1 [48-53]
	B (0.5 ≦ B < 0.001 μM)	O=C(NCC1(CO)CC1)C1(OCc2cc(=O)n3nc(-c4ccccc4)nc3[nH]2)CCCCC1 [48-54]
	B (0.5 ≦ B < 0.001 μM)	COCC1(CNC(=O)C2(OCc3cc(=O)n4nc(-c5ccccc5)nc4[nH]3)CCCCC2)CC1 [48-55]
	B (0.5 ≦ B < 0.001 μM)	O=C(NCC1(O)CCCCC1)C1(OCc2cc(=O)n3nc(-c4ccccc4)nc3[nH]2)CCCCC1 [48-56]
	B (0.5 ≦ B < 0.001 μM)	COc1ccccc1C1(CNC(=O)C2(OCc3cc(=O)n4nc(-c5ccccc5)nc4[nH]3)CCCCC2)CCC1 [48-57]
	B (0.5 ≦ B < 0.001 μM)	CC(C)(CNC(=O)C1(OCc2cc(=O)n3nc(-c4ccccc4)nc3[nH]2)CCCCC1)N1CCOCC1 [48-58]
	B (0.5 ≦ B < 0.001 μM)	O=C(NC1(CO)CCCC1)C1(OCc2cc(=O)n3nc(-c4ccccc4)nc3[nH]2)CCCCC1 [48-59]
	B (0.5 ≦ B < 0.001 μM)	O=C(NCC1(O)CCCC1)C1(OCc2cc(=O)n3nc(-c4ccccc4)nc3[nH]2)CCCCC1 [48-60]

Kd [nM]	FABP4 TdF Kd	SMILES
	B (0.5 ≦ B < 0.001 μM)	O=C(NCC1(O)CCOCC1)C1(OCc2cc(=O)n3nc(-c4ccccc4)nc3[nH]2)CCCCC1 [48-61]
	B (0.5 ≦ B < 0.001 μM)	O=C(NCC1(CO)CCOCC1)C1(OCc2cc(=O)n3nc(-c4ccccc4)nc3[nH]2)CCCCC1 [48-62]
	B (0.5 ≦ B < 0.001 μM)	O=C(NC1CCc2c(Cl)cccc21)C1(OCc2cc(=O)n3nc(-c4ccccc4)nc3[nH]2)CCCCC1 (stereo not shown) [48-63]
	B (0.5 ≦ B < 0.001 μM)	O=C(N1CCc2ccc(Cl)cc21)C1(OCc2cc(=O)n3nc(-c4ccccc4)nc3[nH]2)CCCCC1 [48-64]
≤ 1		O=C(NCC1(c2ccc(Cl)cc2)CCC1)C1(OCc2cc(=O)n3nc(-c4ccccc4)nc3[nH]2)CCCCC1 [48-65]
> 500		O=C(N1CCC[C@@H]1CO)C1(OCc2cc(=O)n3nc(-c4ccccc4)nc3[nH]2)CCCCC1 [48-66]
	B (0.5 ≦ B < 0.001 μM)	O=C(NC1(CO)CCCCC1)C1(OCc2cc(=O)n3nc(-c4ccccc4)nc3[nH]2)CCCCC1 [48-67]
> 500		NC1(COC(=O)C2(OCc3cc(=O)n4nc(-c5ccccc5)nc4[nH]3)CCCCC2)CCOCC1 [48-68]
> 500		O=C(NC1(CO)CCOCC1)C1(OCc2cc(=O)n3nc(-c4ccccc4)nc3[nH]2)CCCCC1 [48-69]
	B (0.5 ≦ B < 0.001 μM)	COc1cccc(C2(CNC(=O)C3(OCc4cc(=O)n5nc(-c6ccccc6)nc5[nH]4)CCCCC3)CC2)c1 [48-70]
	B (0.5 ≦ B < 0.001 μM)	COc1cccc(C2(NC(=O)C3(OCc4cc(=O)n5nc(-c6ccccc6)nc5[nH]4)CCCCC3)CC2)c1 [48-71]
	B (0.5 ≦ B < 0.001 μM)	O=C(NCC1(c2ccc(Cl)cc2)CC1)C1CCCCC1OCc1cc(=O)n2nc(-c3ccccc3)nc2[nH]1 (stereo not shown) [48-76]
	B (0.5 ≦ B < 0.001 μM)	CN(CCC1CC1)C(=O)C1(OCc2cc(=O)n3nc(-c4ccccc4)nc3[nH]2)CCCCC1 [48-77]
> 500		O=C(O)C1(OCc2cc(=O)n3nc(-c4ccccc4)nc3[nH]2)CCCC1 [48-78]
	B (0.5 ≦ B < 0.001 μM)	O=C(Nc1c(Cl)cccc1OCc1cc(=O)n2nc(-c3ccccc3)nc2[nH]1)C1CCC1 [49-2]
	B (0.5 ≦ B < 0.001 μM)	O=C(Nc1c(Cl)cccc1OCc1cc(=O)n2nc(-c3ccccc3)nc2[nH]1)C1CC1 [49-3]
	B (0.5 ≦ B < 0.001 μM)	O=C(Nc1c(Cl)cccc1OCc1cc(=O)n2nc(-c3ccccc3)nc2[nH]1)C1CCCC1 [49-4]
	B (0.5 ≦ B < 0.001 μM)	CC1(C(=O)Nc2c(Cl)cccc2OCc2cc(=O)n3nc(-c4ccccc4)nc3[nH]2)CC1 [49-5]
	B (0.5 ≦ B < 0.001 μM)	O=C(CC1CC1)Nc1c(Cl)cccc1OCc1cc(=O)n2nc(-c3ccccc3)nc2[nH]1 [49-6]

The next lines start with the compound.

SMILES	Kd [nM]	FABP4 TdF Kd
COc1ccccc1C1(NC(=O)C2(OCc3cc(=O)n4nc(-c5ccccc5)nc4[nH]3)CCCCC2)CC1 [48-13, N-(1-(2-methoxyphenyl)cyclopropyl)-1-((7-oxo-2-phenyl-4,7-dihydro-[1,2,4]triazolo[1,5-a]pyrimidin-5-yl)methoxy)cyclohexanecarboxamide]	≤ 1	
O=C(NCC1(c2ccccc2Cl)CC1)C1(OCc2cc(=O)n3nc(-c4ccccc4)nc3[nH]2)CCCCC1 [48-14]		B (0.5 ≦ B < 0.001 μM)
O=C(NCC1(CO)CCCC1)C1(OCc2cc(=O)n3nc(-c4ccccc4)nc3[nH]2)CCCCC1 [48-15, N-((1-(hydroxymethyl)cyclopentyl)methyl)-1-((7-oxo-2-phenyl-4,7-dihydro-[1,2,4]triazolo[1,5-a]pyrimidin-5-yl)methoxy)cyclohexanecarboxamide]	≤ 1	
O=C(NCC1CC1)C1(OCc2cc(=O)n3nc(-c4ccccc4)nc3[nH]2)CCCCC1 [48-16]		B (0.5 ≦ B < 0.001 μM)
O=C(NCCO)C1(OCc2cc(=O)n3nc(-c4ccccc4)nc3[nH]2)CCCCC1 [48-17]		B (0.5 ≦ B < 0.001 μM)
O=C(NC1CC1)C1(OCc2cc(=O)n3nc(-c4ccccc4)nc3[nH]2)CCCCC1 [48-18]	> 500	
O=C(N1CCOCC1)C1(OCc2cc(=O)n3nc(-c4ccccc4)nc3[nH]2)CCCCC1 [48-19]	> 500	
O=C(NCC1CCC1)C1(OCc2cc(=O)n3nc(-c4ccccc4)nc3[nH]2)CCCCC1 [48-20]		B (0.5 ≦ B < 0.001 μM)
CC(C)(C)OC(=O)N1CCC(OCc2cc(=O)n3nc(-c4ccccc4)nc3[nH]2)(C(=O)NCC2CC2)CC1 [48-21]	> 500	
CC(C)(C)OC(=O)N1CCC(OCc2cc(=O)n3nc(-c4ccccc4)nc3[nH]2)(C(=O)NCC2CCC2)CC1 [48-22]	> 500	
CNC(=O)C1(OCc2cc(=O)n3nc(-c4ccccc4)nc3[nH]2)CCCCC1 [48-23]	> 500	
COCCNC(=O)C1(OCc2cc(=O)n3nc(-c4ccccc4)nc3[nH]2)CCCCC1 [48-24]		B (0.5 ≦ B < 0.001 μM)
CC1(C)CN(C(=O)C2(OCc3cc(=O)n4nc(-c5ccccc5)nc4[nH]3)CCCCC2)CCO1 [48-25]		B (0.5 ≦ B < 0.001 μM)
O=C(NCCC1CC1)C1(OCc2cc(=O)n3nc(-c4ccccc4)nc3[nH]2)CCCCC1 [48-26]		B (0.5 ≦ B < 0.001 μM)
CN(C(=O)C1(OCc2cc(=O)n3nc(-c4ccccc4)nc3[nH]2)CCCCC1)C1CCCCC1 [48-27]		B (0.5 ≦ B < 0.001 μM)
CN(C(=O)C1(OCc2cc(=O)n3nc(-c4ccccc4)nc3[nH]2)CCCCC1)C1CC1 [48-28]		B (0.5 ≦ B < 0.001 μM)
CN(CCc1cccc(Cl)c1)C(=O)C1(OCc2cc(=O)n3nc(-c4ccccc4)nc3[nH]2)CCCCC1 [48-29]		B (0.5 ≦ B < 0.001 μM)
CN(C)C(=O)C1(OCc2cc(=O)n3nc(-c4ccccc4)nc3[nH]2)CCCCC1 [48-30]	> 500	
CN(Cc1cccc(Cl)c1)C(=O)C1(OCc2cc(=O)n3nc(-c4ccccc4)nc3[nH]2)CCCCC1 [48-31]		B (0.5 ≦ B < 0.001 μM)
Cn1nccc1NC(=O)C1(OCc2cc(=O)n3nc(-c4ccccc4)nc3[nH]2)CCCCC1 [48-32]		B (0.5 ≦ B < 0.001 μM)
Cn1ccc(NC(=O)C2(OCc3cc(=O)n4nc(-c5ccccc5)nc4[nH]3)CCCCC2)n1 [48-33]		B (0.5 ≦ B < 0.001 μM)
O=C(NCC1(c2ccccc2Cl)CCC1)C1(OCc2cc(=O)n3nc(-c4ccccc4)nc3[nH]2)CCCCC1 [48-34]		B (0.5 ≦ B < 0.001 μM)
Cc1cc(NC(=O)C2(OCc3cc(=O)n4nc(-c5ccccc5)nc4[nH]3)CCCCC2)n(C)n1 [48-35]	> 500	
O=C(NC1(CO)CC1)C1(OCc2cc(=O)n3nc(-c4ccccc4)nc3[nH]2)CCCCC1 [48-36]		B (0.5 ≦ B < 0.001 μM)
CN(CCc1ccccc1)C(=O)C1(OCc2cc(=O)n3nc(-c4ccccc4)nc3[nH]2)CCCCC1 [48-37]		B (0.5 ≦ B < 0.001 μM)
CCN(C(=O)C1(OCc2cc(=O)n3nc(-c4ccccc4)nc3[nH]2)CCCCC1)C1CCCCC1 [48-38]		B (0.5 ≦ B < 0.001 μM)
Cn1nc(C2CC2)cc1NC(=O)C1(OCc2cc(=O)n3nc(-c4ccccc4)nc3[nH]2)CCCCC1 [48-39]		B (0.5 ≦ B < 0.001 μM)
O=C(NC1CCCCC1)C1(OCc2cc(=O)n3nc(-c4ccccc4)nc3[nH]2)CCCCC1 [48-40]		B (0.5 ≦ B < 0.001 μM)

Source: patent publication US8815875B2 (Merck Sharp & Dohme Corp., priority 2008, dated 2014)
